In patent US11926626B2, “Heterocyclic GLP-1 agonists” (Gasherbrum Bio, Inc., priority 2020, dated 2024):
Read-outs that look alike come from different tables or passages of the source.

Molecular target: GLP-1 Receptor (Homo sapiens, UniProt P43220)
Experiment: GLP-1R agonist cAMP stimulation assay (HEK293/GLP1R/CRE-Luc cells, HTRF cAMP)
Format: cell-based
Conditions: 30 min, 37° C.; for EC50: read-out: GLP1R cAMP Stimulation DR: EC50
Protocol: Activation of GLP-1 receptor is known to stimulate cyclic AMP (cAMP) production in cells which indicates primary coupling to the Gαs subunit of the G protein heterotrimeric complex.
To optimize functional activity directed toward Gαs coupling, a HEK293/CRE-Luc cell line developed by HDB stably expressing the GLP-1 Receptor was used. […] 1×10^5 cells/mL HEK293/GLP1R/CRE-LUC(HD Biosciences) cell suspensions prepared with assay buffer[DPBS containing 0.5 mM IBMX (Sigma, Cat #I5879) and 0.1% BSA (GENVIEW, Cat #FA016-100g)], 10 uL cell suspensions were added to each well of previous generated assay plate which already contains 50 nl compound at 200×concentration using ThermoFisher Multidrop Combi (1000 cells/well). Seal the plate and incubate at 37° C. with 5% CO2 for 30 min.
After incubation the cAMP assay signal was generated using cAMP dynamic 2 Kit (Cisbio). 5 μL cAMP-d2 working solution was added to each well, followed with 5 μL Anti-cAMP antibody-cryptate working solution added to each well using ThermoFisher Multidrop Combi. Incubate at room temperature for 1 hour protected from light.

[1] = HEK293/CRE-Luc cells stably expressing GLP-1 Receptor

Sequence of GLP-1 Receptor (P43220 24-463): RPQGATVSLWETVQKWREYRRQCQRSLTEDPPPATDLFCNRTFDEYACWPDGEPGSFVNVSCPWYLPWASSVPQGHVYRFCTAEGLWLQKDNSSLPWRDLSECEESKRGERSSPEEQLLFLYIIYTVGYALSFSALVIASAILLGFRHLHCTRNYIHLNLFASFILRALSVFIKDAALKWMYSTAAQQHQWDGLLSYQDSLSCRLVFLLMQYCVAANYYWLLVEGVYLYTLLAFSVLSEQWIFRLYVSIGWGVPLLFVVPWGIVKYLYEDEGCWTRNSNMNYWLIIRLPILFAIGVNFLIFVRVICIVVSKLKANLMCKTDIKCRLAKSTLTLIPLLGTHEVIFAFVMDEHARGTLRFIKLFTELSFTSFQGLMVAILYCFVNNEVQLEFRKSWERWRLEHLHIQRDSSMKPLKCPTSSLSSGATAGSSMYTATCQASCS

SMILES	GLP1R cAMP Stimulation DR: pEC50 [1]	other results
O=C(O)c1ccc2nc(CN3CCC(Oc4nc(Cc5ccc(Cl)cc5F)ccc4F)CC3)n(C[C@@H]3CCO3)c2n1 [Compound 111a, 2-{[4-({6-[(4-chloro-2-fluorophenyl)methyl]-3-fluoropyridin-2-yl}oxy)piperidin-1-yl]methyl}-3-{[(2S)-oxetan-2-yl]methyl}-3H-imidazo[4,5-b]pyridine-5-carboxylic acid]	9.5	–
O=C(O)c1ccc2nc(CN3CCC(Oc4ccnc(Cc5ccc(Cl)cc5)n4)CC3)n(Cc3cn[nH]c3)c2n1 [Compound 193, 3-((1H-pyrazol-4-yl)methyl)-2-((4-((2-(4-chlorobenzyl)pyrimidin-4-yl)oxy)piperidin-1-yl)methyl)-3H-imidazo[4,5-b]pyridine-5-carboxylic acid]	9.7	–
CC(=O)Nc1ccc2nc(CN3CCC(Oc4cccc(Cc5ccc(Cl)cc5F)n4)CC3)n(C[C@@H]3CCO3)c2c1 [Compound 134a, N-(2-{[4-({6-[(4-chloro-2-fluorophenyl)methyl]pyridin-2-yl}oxy)piperidin-1-yl]methyl}-1-{[(2S)-oxetan-2-yl]methyl}-1H-1,3-benzodiazol-6-yl)acetamide]	–	GLP1R cAMP Stimulation DR: pEC50: 7.2
O=C(O)c1ccc2nc(Cc3ccc(Oc4nc(Cc5ccc(Cl)cc5)ncc4F)cc3)n(C[C@@H]3CCO3)c2n1 [Compound 189a, 2-{[4-({2-[(4-chlorophenyl)methyl]-5-fluoropyrimidin-4-yl}oxy)phenyl]methyl}-3-{[(2S)-oxetan-2-yl]methyl}-3H-imidazo[4,5-b]pyridine-5-carboxylic acid]	9.2	–
O=C(O)c1ccc2nc(C[C@H]3CC[C@H](Oc4ccnc(Cc5ccc(Cl)cc5)n4)CC3)n(C[C@@H]3CCO3)c2c1 [Compound 176a, 1-{[(2S)-oxetan-2-yl]methyl}-2-{[trans-4-({2-[(4-chlorophenyl)methyl]pyrimidin-4-yl}oxy)cyclohexyl]methyl}-1H-1,3-benzodiazole-6-carboxylic acid]	9.4	–
O=C(O)c1ccc2nc(CN3CCC(Oc4ccnc(Cc5ccc(Cl)cc5F)n4)CC3)n(C[C@@H]3CCO3)c2n1 [Compound 113a, 2-{[4-({2-[(4-chloro-2-fluorophenyl)methyl]pyrimidin-4-yl}oxy)piperidin-1-yl]methyl}-3-{[(2S)-oxetan-2-yl]methyl}-3H-imidazo[4,5-b]pyridine-5-carboxylic acid]	10.4	–
Cc1ccc(OC2CCN(Cc3nc4ccc(C(=O)O)nc4n3CC3CCO3)CC2)nc1Cc1ccc(Cl)cc1F (stereo in doubt) [Compound 169a, 2-{[4-({6-[(4-chloro-2-fluorophenyl)methyl]-5-methylpyridin-2-yl}oxy)piperidin-1-yl]methyl}-3-{[(2S)-oxetan-2-yl]methyl}-3H-imidazo[4,5-b]pyridine-5-carboxylic acid]	–	EC50 [1]: 80 nM
O=C(O)c1ccc2nc(CN3CCC(Oc4cccc(Cc5ccc(Cl)cc5)n4)CC3)n(C[C@@H]3CCO3)c2n1 [Compound 124a, (S)-2-((4-((6-(4-chlorobenzyl)pyridin-2-yl)oxy)piperidin-1-yl)methyl)-3-(oxetan-2-ylmethyl)-3H-imidazo[4,5-b]pyridine-5-carboxylic acid]	10.4	–
NC(=O)c1ccc2nc(CN3CCC(Oc4ccnc(Cc5ccc(Cl)cc5)n4)CC3)n(C[C@@H]3CCO3)c2n1 [Compound 200a, (S)-2-((4-((2-(4-chlorobenzyl)pyrimidin-4-yl)oxy)piperidin-1-yl)methyl)-3-(oxetan-2-ylmethyl)-3H-imidazo[4,5-b]pyridine-5-carboxamide]	7.1	–
O=C(O)c1ccc2nc(CN3CCC(n4ncc5ccc(Cc6ccc(Cl)cc6F)nc54)CC3)n(C[C@@H]3CCO3)c2n1 [Compound 185a, 2-[(4-{6-[(4-chloro-2-fluorophenyl)methyl]-1H-pyrazolo[3,4-b]pyridin-1-yl}piperidin-1-yl)methyl]-3-{[(2S)-oxetan-2-yl]methyl}-3H-imidazo[4,5-b]pyridine-5-carboxylic acid]	9.3	–
O=C(O)c1ccc2nc(CN3CCC(Oc4cc(C(F)(F)F)cc(Cc5ccc(Cl)cc5)n4)CC3)n(C[C@@H]3CCO3)c2n1 [Compound 156a, 2-{[4-({6-[(4-chlorophenyl)methyl]-4-(trifluoromethyl)pyridin-2-yl}oxy)piperidin-1-yl]methyl}-3-{[(2S)-oxetan-2-yl]methyl}-3H-imidazo[4,5-b]pyridine-5-carboxylic acid]	7.4	–
O=C(O)c1ccc2nc(CN3CCC(n4ccc5ccc(Cc6ccc(Cl)cc6F)nc54)CC3)n(C[C@@H]3CCO3)c2n1 [Compound 140a, 2-[(4-{6-[(4-chloro-2-fluorophenyl)methyl]-1H-pyrrolo[2,3-b]pyridin-1-yl}piperidin-1-yl)methyl]-3-{[(2S)-oxetan-2-yl]methyl}-3H-imidazo[4,5-b]pyridine-5-carboxylic acid]	8.9	–
O=C(O)c1ccc2nc(CN3CCC(Oc4cccc(Cc5ccc(Cl)s5)n4)CC3)n(C[C@@H]3CCO3)c2n1 [Compound 147a, 2-{[4-({6-[(5-chlorothiophen-2-yl)methyl]pyridin-2-yl}oxy)piperidin-1-yl]methyl}-3-{[(2S)-oxetan-2-yl]methyl}-3H-imidazo[4,5-b]pyridine-5-carboxylic acid]	–	GLP1R cAMP Stimulation DR: pEC50: 9.7; EC50: 0.2 nM
O=C(O)c1ccc2nc(C[C@H]3CC[C@H](Oc4ccnc(Cc5ccc(Cl)cc5F)n4)CC3)n(C[C@@H]3CCO3)c2n1 [Compound 175b, 3-{[(2S)-oxetan-2-yl]methyl}-2-{[trans-4-({2-[(4-chloro-2-fluorophenyl)methyl]pyrimidin-4-yl}oxy)cyclohexyl]methyl}-3H-imidazo[4,5-b]pyridine-5-carboxylic acid]	10.2	–
O=C(O)c1ccc2nc(CN3CCC(Oc4ccnc(Cc5ccc(Cl)cc5)n4)CC3)n(C[C@@H]3CCO3)c2n1 [Compound 152a, 2-{[4-({2-[(4-chlorophenyl)methyl]pyrimidin-4-yl}oxy)piperidin-1-yl]methyl}-3-{[(2S)-oxetan-2-yl]methyl}-3H-imidazo[4,5-b]pyridine-5-carboxylic acid]	10.4	–
O=C(O)c1ccc2nc(CN3CCC(Cc4cccc(Oc5ccc(Cl)cc5F)n4)CC3)n(C[C@@H]3CCO3)c2n1 [Compound 121a, 2-[(4-{[6-(4-chloro-2-fluorophenoxy)pyridin-2-yl]methyl}piperidin-1-yl)methyl]-3-{[(2S)-oxetan-2-yl]methyl}-3H-imidazo[4,5-b]pyridine-5-carboxylic acid]	8.2	–
O=C(O)c1ccc2nc(CN3CC=C(c4cnc5ccc(Cc6ccc(Cl)cc6F)nn45)CC3)n(C[C@@H]3CCO3)c2n1 [Compound 192a, 2-[(4-{6-[(4-chloro-2-fluorophenyl)methyl]imidazo[1,2-b]pyridazin-3-yl}-1,2,3,6-tetrahydropyridin-1-yl)methyl]-3-{[(2S)-oxetan-2-yl]methyl}-3H-imidazo[4,5-b]pyridine-5-carboxylic acid]	6.9	–
O=C(O)c1ccc2nc(CN3CCC(Oc4cccc(CN5Cc6ccccc6C5=O)n4)CC3)n(C[C@@H]3CCO3)c2n1 [Compound 148a, 3-{[(2S)-oxetan-2-yl]methyl}-2-{[4-({6-[(1-oxo-2,3-dihydro-1H-isoindol-2-yl)methyl]pyridin-2-yl}oxy)piperidin-1-yl]methyl}-3H-imidazo[4,5-b]pyridine-5-carboxylic acid]	8.4	–
O=c1[nH]c(-c2ccc3nc(CN4CCC(Oc5ccnc(Cc6ccc(Cl)cc6)n5)CC4)n(C[C@@H]4CCO4)c3n2)no1 [Compound 198a, (S)-3-(2-((4-((2-(4-chlorobenzyl)pyrimidin-4-yl)oxy)piperidin-1-yl)methyl)-3-(oxetan-2-ylmethyl)-3H-imidazo[4,5-b]pyridin-5-yl)-1,2,4-oxadiazol-5(4H)-one]	9.2	–
O=C(O)c1ccc2nc(CN3CCC(Oc4ccnc(Cc5ccc(Cl)cc5)c4)CC3)n(C[C@@H]3CCO3)c2n1 [Compound 159a, 2-{[4-({2-[(4-chlorophenyl)methyl]pyridin-4-yl}oxy)piperidin-1-yl]methyl}-3-{[(2S)-oxetan-2-yl]methyl}-3H-imidazo[4,5-b]pyridine-5-carboxylic acid]	8.6	–
Cn1c(C[C@H]2CC[C@H](Oc3ccnc(Cc4ccc(Cl)cc4)n3)CC2)nc2ccc(C(=O)O)nc21 [Compound 180a, 3-methyl-2-{[trans-4-({2-[(4-chlorophenyl)methyl]pyrimidin-4-yl}oxy)cyclohexyl]methyl}-3H-imidazo[4,5-b]pyridine-5-carboxylic acid]	8.6	–
O=C(O)c1ccc2nc(CN3CCC(Oc4ccn(Cc5ccc(Cl)cc5F)n4)CC3)n(C[C@@H]3CCO3)c2c1 [Compound 116a, 2-{[4-({1-[(4-chloro-2-fluorophenyl)methyl]-1H-pyrazol-3-yl}oxy)piperidin-1-yl]methyl}-1-{[(2S)-oxetan-2-yl]methyl}-1H-1,3-benzodiazole-6-carboxylic acid]	8.6	–
